The record followed here is PubChem BioAssay AID1583 (NINDS Approved Drug Screening Program, 2009).

Broadly, the EC50 is the concentration giving half of the maximal effect. A higher EC50 goes with a need for much substance.

In this assay the test system is polyglutamine-induced caspase-3 activation, cell assay. Briefly: polyglutamine-triggered caspase-3 activation inhibitors, cell-based (AID 1583).

Each structure is given as a SMILES string.

As for `C[C@@]1(C(=O)O)CC[C@]2(C)CC[C@]3(C)C4=CC=C5C=C(O)C(=O)C=C5[C@]4(C)CC[C@@]3(C)[C@@H]2C1`, the 50% effective concentration (EC50) worked out at 4.63 µM.

In turn, `CC(=O)O[C@H]1C[C@H](O[C@H]2[C@@H](O)C[C@H](O[C@H]3[C@@H](O)C[C@H](O[C@H]4CC[C@@]5(C)C(CCC6C5C[C@@H](O)[C@]5(C)[C@@H](C7=CC(=O)OC7)CC[C@]65O)C4)O[C@@H]3C)O[C@@H]2C)O[C@H](C)[C@H]1O[C@@H]1O[C@H](CO)[C@@H](O)[C@H](O)[C@H]1O` (some centres undefined) gave a 50% effective concentration (EC50) of 7.47 µM. Consider `CO[C@H]1[C@H](O)[C@H](O[C@H]2CC[C@]3(C)C4CC[C@]5(C)C(C6=CC(=O)OC6)CC[C@]5(O)C4CC[C@@H]3C2)O[C@@H](C)[C@@H]1O` (some centres undefined), for which the EC50 worked out at 0.0786 µM. `CCCCC(CC)CN=C(N)NC(N)=NCCCCCCN=C(N)NC(N)=NCC(CC)CCCC` (centres undefined) gave an EC50 of 1.67 µM. On to `CC(=O)[O][Hg][c]1ccccc1`, for which the EC50 amounted to 1.74 µM. Take `O[N+]1=CC=CCC1=S.On1ccccc1=S.[Zn]`: the concentration giving a half-maximal response (EC50) was found to be 0.855 µM. On to `C[C@]12CCC3C(CC[C@]4(O)C[C@@H](O)CC[C@]34C=O)[C@@]1(O)CCC2C1=CC(=O)OC1` (some centres undefined), for which the concentration giving a half-maximal response (EC50) is 1.68 µM. The value for `CO[C@H]1[C@H](O)[C@@H](O[C@H]2CC[C@]3(C=O)C4CC[C@]5(C)[C@@H](C6=CC(=O)OC6)CC[C@]5(O)C4CC[C@@H]3C2)O[C@@H](C)[C@@H]1O` (some centres undefined) was 0.0932 µM; that for `C[C@H]1O[C@@H](O[C@H]2[C@@H](O)C[C@H](O[C@H]3[C@@H](O)C[C@H](O[C@H]4CC[C@]5(C)C6CC[C@]7(C)[C@@H](C8=CC(=O)OC8)CC[C@]7(O)C6CC[C@@H]5C4)O[C@@H]3C)O[C@@H]2C)C[C@H](O)[C@@H]1O` (some centres undefined) was 0.189 µM.
